# Values quoted from earlier work in patent US20250275973A1, “USE OF ALC1 INHIBITORS AND SYNERGY WITH PARPI” (EISBACH BIO GMBH, priority 2022, published 2025).
# Tested on: GFP-tagged PARP1 and PARP2
# Settings: U2OS cells treated with PARPi; background section
row,SMILES,retention/recruitment of GFP-tagged PARP1 and PARP2 at induced DNA lesions
1,C[C@]1(c2nc3c(C(N)=O)cccc3[nH]2)CCCN1 [veliparib],overall less PARP1/PARP2 recruitment
2,Cn1ncnc1[C@H]1c2n[nH]c(=O)c3cc(F)cc(c23)N[C@@H]1c1ccc(F)cc1 [talazoparib],enhanced retention
